# Experimental data: US8435978B2, “Substituted sulfonamide compounds” (Gruenenthal GmbH, priority 2006, dated 2013)
# Counter-ions that a name gives are not always drawn.
# Tests used:
# [1] = target: T1, human B1R receptor (Homo sapiens, UniProt P46663); assay: Functional study on the bradykinin receptor 1 (B1R), FLIPR Ca2+ assay, hB1R cells; assay type: cell-based; details: CHO-K1, test substance 10 μM, agonist Lys-Des-Arg9-bradykinin 0.5 nM, % inhibition compared with the maximum achievable inhibition, read-out: B1R Antagonism, human [10 μM] % Inhibition
# T1 construct: host or cells: CHO K1 cells (Chinese hamster ovary), stably transfected
# T1 sequence (P46663 1-353): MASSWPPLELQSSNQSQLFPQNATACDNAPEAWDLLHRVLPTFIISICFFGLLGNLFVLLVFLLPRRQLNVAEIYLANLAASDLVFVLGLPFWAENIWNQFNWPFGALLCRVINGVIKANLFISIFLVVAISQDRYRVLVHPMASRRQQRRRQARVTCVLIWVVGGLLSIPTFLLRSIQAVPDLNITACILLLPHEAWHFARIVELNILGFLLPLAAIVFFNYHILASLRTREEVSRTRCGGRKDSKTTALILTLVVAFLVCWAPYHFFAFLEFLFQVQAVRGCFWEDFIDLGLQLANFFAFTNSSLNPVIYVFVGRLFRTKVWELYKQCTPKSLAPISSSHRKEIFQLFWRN
# Description: (§1) The agonistic or antagonistic action of substances can be quantified on the bradykinin receptor 1 (B1R) of the species human and rat with ectopically expressing cell lines (CHO K1 cells) and with the aid of a Ca^2+-sensitive dye (Fluo-4) using a fluorescent imaging plate reader (FLIPR). The indication in % activation is based on the Ca^2+ signal after addition of Lys-Des-Arg^9-bradykinin (0.5 nM) or Des-Arg^9-bradykinin (100 nM). Antagonists result in a suppression of the Ca^2+ influx following administration of the agonist. The % inhibition in comparison with the maximum achievable inhibition is indicated.
# (§2) The agonistic or antagonistic action of substances can be determined on the bradykinin receptor 1 (B1R) of the species human and rat using the following assay. According to this assay, the Ca^2+ influx through the channel is quantified with the aid of a Ca^2+-sensitive dye (type Fluo-4, Molecular Probes Europe BV, Leiden, Netherlands) using a Fluorescent Imaging Plate Reader (FLIPR, Molecular Devices, Sunnyvale, USA).
# (§3) Chinese hamster ovary cells (CHO K1 cells) which have been stably transfected with the human B1R gene (hB1R cells, Euroscreen s.a., Gosselies, Belgium) or with the B1R gene of the rat (rB1R cells, Axxam, Milan, Italy) are used. For functional studies, the cells are plated out on black 96-well plates having a clear base (BD Biosciences, Heidelberg, Germany) in a density of 20,000-25,000 cells/well. The cells are incubated overnight at 37° C. and with 5% CO2 in culture medium (hB1R cells: Nutrient Mixture Ham's F12, Gibco Invitrogen GmbH, Karlsruhe, Germany; rB1R cells: D-MEM/F12, Gibco Invitrogen GmbH, Karlsruhe, Germany), with 10 vol. % FBS (fetal bovine serum, Gibco Invitrogen GmbH, Karlsruhe, Germany). On the following day, the cells are loaded for 60 minutes at 37° C. with 2.13 μM Fluo-4 (Molecular Probes Europe BV, Leiden, Netherlands) in HBSS buffer (Hank's buffered saline solution, Gibco Invitrogen GmbH, Karlsruhe, Germany) […] (Sigma-Aldrich, Taufkirchen, Germany) and 10 mM HEPES (Sigma-Aldrich, Taufkirchen, Germany). The plates are then washed twice with HBSS buffer, and HBSS buffer additionally containing 0.1% BSA (bovine serum albumin; Sigma-Aldrich, Taufkirchen, Germany), 5.6 mM glucose and 0.05% gelatin (Merck KGaA, Darmstadt, Germany) is added to the plates. After incubation for a further 20 minutes at room temperature, the plates are inserted into the FLIPR for Ca^2+ measurement. The Ca^2+-dependent fluorescence is measured before and after the addition of substances (λex=488 nm, λem=540 nm). Quantification is carried out by measuring the highest fluorescence intensity (FC, fluorescence counts) over time.
# (§4) The FLIPR protocol consists of 2 substance additions. Test substances (10 μM) are first pipetted onto the cells and the Ca^2+ influx is compared with the control (hB1R: Lys-Des-Arg^9-bradykinin 0.5 nM; rB1R: Des-Arg^9-bradykinin 100 nM). This gives the activation in %, based on the Ca^2+ signal after addition of Lys-Des-Arg^9-bradykinin (0.5 nM) or Des-Arg^9-bradykinin (100 nM).
# (§5) After 10 minutes' incubation, 0.5 nM Lys-Des-Arg^9-bradykinin (hB1R) or 100 nM Des-Arg^9-bradykinin (rB1R) are applied, and the influx of Ca^2+ is likewise determined. Antagonists lead to suppression of the Ca^2+ influx. The % inhibition compared with the maximum achievable inhibition is calculated.
# [2] = target: T2, B1R receptor of the rat (Rattus norvegicus, UniProt P97583); assay: Functional study on the bradykinin receptor 1 (B1R), FLIPR Ca2+ assay, rB1R cells; assay type: cell-based; details: CHO-K1, test substance 10 μM, agonist Des-Arg9-bradykinin 100 nM, % inhibition compared with the maximum achievable inhibition, read-out: B1R Antagonism, rat [10 μM] % Inhibition
# T2 construct: host or cells: CHO K1 cells (Chinese hamster ovary), stably transfected
# T2 sequence (P97583 1-337): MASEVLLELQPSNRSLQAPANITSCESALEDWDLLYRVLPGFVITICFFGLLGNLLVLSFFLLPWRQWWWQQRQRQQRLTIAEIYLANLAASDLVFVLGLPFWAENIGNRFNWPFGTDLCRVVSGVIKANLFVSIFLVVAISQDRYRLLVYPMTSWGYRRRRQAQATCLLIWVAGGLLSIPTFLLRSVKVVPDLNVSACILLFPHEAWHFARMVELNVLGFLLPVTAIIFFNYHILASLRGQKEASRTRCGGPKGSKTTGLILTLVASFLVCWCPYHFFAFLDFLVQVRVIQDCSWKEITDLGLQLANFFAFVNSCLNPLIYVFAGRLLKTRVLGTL
# Description: as §1, §2, §3, §4, §5
inhibition at 10 µM [1],inhibition at 10 µM [2],SMILES
90%,92.9%,"CN(C)CCCN1CCN(C(=O)COCC2CCCN2S(=O)(=O)c2c(Cl)cc(C(F)(F)F)cc2Cl)CC1 (stereo not shown) [Example 569, 2-((1-(2,6-dichloro-4-(trifluoromethyl)phenylsulfonyl)pyrrolidin-2-yl)methoxy)-1-(4-(3-(dimethylamino)propyl)piperazin-1-yl)ethanone]"
101%,98.2%,"COc1cc(C)c(S(=O)(=O)N2CCCC2COCC(=O)N2CCN(Cc3ccc4c(c3)OCO4)CC2)c(C)c1 (stereo not shown) [Example 462, 1-(4-(benzo[d][1,3]dioxol-5-ylmethyl)piperazin-1-yl)-2-((1-(4-methoxy-2,6-dimethylphenylsulfonyl)pyrrolidin-2-yl)methoxy)ethanone]"
68.2%,103%,"COc1cc(C)c(S(=O)(=O)N2CCCC2COCC(=O)NCC(c2ccc(C(F)(F)F)cc2)N2CCCC2)c(C)c1 (stereo not shown) [Example 496, 2-((1-(4-methoxy-2,6-dimethylphenylsulfonyl)pyrrolidin-2-yl)methoxy)-N-(2-(pyrrolidin-1-yl)-2-(4-(trifluoromethyl)phenyl)ethyl)acetamide]"
106%,96%,"COc1ccc2cc(S(=O)(=O)N3CCCCC3COCC(=O)N3CCN(C4CCN(C)CC4)CC3)ccc2c1 (stereo not shown) [Example 210, 2-((1-(6-methoxynaphthalen-2-ylsulfonyl)piperidin-2-yl)methoxy)-1-(4-(1-methylpiperidin-4-yl)piperazin-1-yl)ethanone]"
101%,101%,"CN1CCC(N2CCN(C(=O)COCC3CCCCN3S(=O)(=O)c3c(Cl)cccc3Cl)CC2)CC1 (stereo not shown) [Example 141, 2-((1-(2,6-dichlorophenylsulfonyl)piperidin-2-yl)methoxy)-1-(4-(1-methylpiperidin-4-yl)piperazin-1-yl)ethanone dihydrochloride]"
21.1%,105%,"COc1ccc(-c2cc(NC(=O)COCC3CCCCN3S(=O)(=O)c3c(C)cc(OC)cc3C)n[nH]2)cc1 (stereo not shown) [Example 543, 2-((1-(4-methoxy-2,6-dimethylphenylsulfonyl)piperidin-2-yl)methoxy)-N-(5-(4-methoxyphenyl)-1H-pyrazol-3-yl)acetamide]"
106%,97.1%,"COc1cc(C)c(S(=O)(=O)N2CCCC[C@H]2COCC(=O)N2CCC(Oc3ccncc3)CC2)c(C)c1 [Example 186, (S)-2-((1-(4-methoxy-2,6-dimethylphenylsulfonyl)piperidin-2-yl)methoxy)-1-(4-(pyridin-4-yloxy)piperidin-1-yl)ethanone hydrochloride]"
50.2%,91%,"O=C(COCC1CCCCN1S(=O)(=O)c1c(Cl)cc(Cl)cc1Cl)NCC(c1cccnc1)N1CCOCC1 (stereo not shown) [Example 256, N-(2-morpholino-2-(pyridin-3-yl)ethyl)-2-((1-(2,4,6-trichlorophenylsulfonyl)piperidin-2-yl)methoxy)acetamide]"
67.1%,99%,"COc1cc(C)c(S(=O)(=O)N2CCCCC2COCC(=O)N2CCN(c3ncc(C(F)(F)F)cc3Cl)CC2)c(C)c1 (stereo not shown) [Example 376, 1-(4-(3-chloro-5-(trifluoromethyl)pyridin-2-yl)piperazin-1-yl)-2-((1-(4-methoxy-2,6-dimethylphenylsulfonyl)piperidin-2-yl)methoxy)ethanone]"
30.7%,95.7%,"COc1cc(C)c(S(=O)(=O)N2CCCC2COCC(=O)NCC(c2ccc(C(F)(F)F)cc2)N(C)C)c(C)c1 (stereo not shown) [Example 495, N-(2-(dimethylamino)-2-(4-(trifluoromethyl)phenyl)ethyl)-2-((1-(4-methoxy-2,6-dimethylphenylsulfonyl)pyrrolidin-2-yl)methoxy)acetamide]"
90.8%,94.5%,"Cc1nn(C)c(Cl)c1S(=O)(=O)N1CCCCC1COCC(=O)N1CCN(C2CCN(C)CC2)CC1 (stereo not shown) [Example 128, 2-((1-(5-chloro-1,3-dimethyl-1H-pyrazol-4-ylsulfonyl)piperidin-2-yl)methoxy)-1-(4-(1-methylpiperidin-4-yl)piperazin-1-yl)ethanone]"
57.8%,101%,"O=C(COCC1CCCCN1S(=O)(=O)c1c(Cl)cccc1Cl)N1CCN(c2ccc(C(F)(F)F)cc2)CC1 (stereo not shown) [Example 550, 2-((1-(2,6-dichlorophenylsulfonyl)piperidin-2-yl)methoxy)-1-(4-(4-(trifluoromethyl)phenyl)piperazin-1-yl)ethanone]"
105%,101%,"Cc1ccc(C)n1CCN1CCN(C(=O)COCC2CCCN2S(=O)(=O)c2c(Cl)cc(Cl)cc2Cl)CC1 (stereo not shown) [Example 332, 1-(4-(2-(2,5-dimethyl-1H-pyrrol-1-yl)ethyl)piperazin-1-yl)-2-((1-(2,4,6-trichlorophenylsulfonyl)pyrrolidin-2-yl)methoxy)ethanone]"
102%,103%,"Cc1cc(S(=O)(=O)N2CCCCC2COCC(=O)N2CCN(C3CCN(C)CC3)CC2)c(C)cc1Cl (stereo not shown) [Example 114, 2-((1-(4-chloro-2,5-dimethylphenylsulfonyl)piperidin-2-yl)methoxy)-1-(4-(1-methylpiperidin-4-yl)piperazin-1-yl)ethanone dihydrochloride]"
104%,99%,"COc1cc(C)c(S(=O)(=O)N2CCCC2COCC(=O)N2CCN(CCn3c(C)ccc3C)CC2)c(C)c1 (stereo not shown) [Example 269, 1-(4-(2-(2,5-dimethyl-1H-pyrrol-1-yl)ethyl)piperazin-1-yl)-2-((1-(4-methoxy-2,6-dimethylphenylsulfonyl)pyrrolidin-2-yl)methoxy)ethanone]"
34.3%,99.9%,"CCn1nccc1NC(=O)COCC1CCCCN1S(=O)(=O)c1c(C)cc(OC)cc1C (stereo not shown) [Example 257, N-(1-ethyl-1H-pyrazol-5-yl)-2-((1-(4-methoxy-2,6-dimethylphenylsulfonyl)piperidin-2-yl)methoxy)acetamide]"
26.2%,86.4%,"Cc1cc(C)nc(CC2CCCCN2C(=O)COCC2Cc3ccccc3CN2S(=O)(=O)c2c(C)cc(C)cc2C)c1 (stereo not shown) [Example 223, 1-(2-((4,6-dimethylpyridin-2-yl)methyl)piperidin-1-yl)-2-((2-(mesitylsulfonyl)-1,2,3,4-tetrahydroisoquinolin-3-yl)methoxy)ethanone]"
